This is an account of results in patent publication US20010034365A1, “Halogen substituted carbamate compounds from 2-phenyl-1,2-ethanediol” (priority 1996, published 2001).

For assay [1], the system named is mice (CF-1 strain). Nature of the assay: Maximal ElectroShock (MES) test for anticonvulsants. The conditions noted are these: dosed orally. It counts as in vivo. Here is the method:
The therapeutic use of the compounds claimed in the present invention as anticonvulsants has been proven by the “Maximal ElectroShock (MES)” test, which is a well-established pharmacological screening method for anticonvulsants against partial seizures, and the results are presented in Table 1. The procedure employed in the MES test for anticonvulsants follows. The compound dosing, solutions were prepared in saline, and the subject, namely, mice (CF-1 strain), were dosed orally. After the designated number of hours, maximal electroshock was induced in mice via corneal electrodes using IITC Life Science model 11A Shocker at 50 mA-60 Hz for […]. Upon inducing, maximal electroshock, the elimination of hindlimb tonic extension was considered as providing evidence of the protection by an anticonvulsant. Median efficacy dose (ED50) levels were determined using three different dose levels with at least 6 mice in each group.
For orientation: Protection in the maximal electroshock model is a classic sign of anticonvulsant action.

Assay [2] relates to mice (CF-1 strain). The description is as above. Type of assay: in vivo. The conditions noted are these: ip, Hour 1, elimination of hindlimb tonic extension.
Setting [3] is: Hour 4, elimination of hindlimb tonic extension.
[4] abbreviates: Hour 1, elimination of hindlimb tonic extension.

A value given as a limit tells only on which side of the number the result lay.

In general, ED50 refers to the dose at which the effect has come halfway, by size or by number of responders. A higher ED50 goes with a need for a large dose. For the molecule `CNC(=O)OC[C@H](OC(=O)NC)c1ccccc1Cl` [Entry 14], the “ED50” value with mice (CF-1 strain) [1] (setting [3]) is above 20 mg/kg.
On to “(S)-(2-(2-Chlorophenyl)-2-carbamoyloxyethyl)oxocarboxamide [Entry 7]”, for which the “ED50” value in the assay on mice (CF-1 strain) [1] (setting [4]) was found to be 22.0 mg/kg.
On to `NC(=O)OC[C@H](OC(N)=O)c1ccccc1Cl` [Entry 13, (R)-(2-(2-Chlorophenyl)-2-N-carbamoyloxyethyl)oxocarboxamide], for which, in the assay on mice (CF-1 strain) [1] (setting [3]), the “ED50” value worked out at 8.9 mg/kg.
Consider `NC(=O)OCC(OC(N)=O)c1ccc(Cl)cc1` (stereo not drawn) [Entry 8, (DL)-(2-(4-Chlorophenyl)-2-carbamoyloxyethyl)oxocarboxamide], for which the “ED50” value in the assay on mice (CF-1 strain) [1] (setting [4]) came out at 29.1 mg/kg.
Still for that read-out and setting: under “(R)-(2-(2-Chlorophenyl)-2-carbamoyloxyethyl)oxocarboxamide [Entry 6]” stands 16.0 mg/kg.
On to `NC(=O)OCC(OC(N)=O)c1c(Cl)cccc1Cl` (stereo not drawn) [Entry 11, (DL)-(2-(2,6-dichlorophenyl)-2-carbamoyloxyethyl)-oxocarboxamide], for which the “ED50” value in the assay on mice (CF-1 strain) [1] (setting [4]) came to 7.4 mg/kg.
Take `O=C(NCc1ccccc1)OC[C@H](OC(=O)NCc1ccccc1)c1ccccc1Cl` [Entry 17, (R)-N-Benzyl(2-(2-chlorophenyl)-2-N-benzylcarbamoyloxyethyl)-oxocarboxamide]: in the assay with mice (CF-1 strain) [1] (setting [3]), the “ED50” value is above 20 mg/kg.
For “(R)-(2-(2-Chlorophenyl)-2-hydroxyethyl)oxocarboxamide [Entry 3]”, in the assay with mice (CF-1 strain) [1] (setting [4]), the “ED50” value amounted to 50.0 mg/kg.
In the case of `O=C(Nc1ccccc1)OC[C@H](OC(=O)Nc1ccccc1)c1ccccc1Cl` [Entry 16, (R)-N-Phenyl(2-(2-chlorophenyl)-2-N-phenylcarbamoyloxyethyl)-oxocarboxamide], the “ED50” value with mice (CF-1 strain) [1] (setting [3]) was above 20 mg/kg.
With “(R)-(2-(2,6-Dichlorophenyl)-carbamoyloxyethyl)oxocarboxamide [Entry 12]”, the “ED50” value in the assay on mice (CF-1 strain) [1] (setting [4]) was found to be 10.7 mg/kg.
For the molecule “(R)-(2-(4-Chlorophenyl)-2-carbamoyloxyethyl)oxocarboxamide [Entry 9]”, the “ED50” value in the assay with mice (CF-1 strain) [1] (setting [4]) stood at 26.2 mg/kg.
On the same count and under the same terms, next, “(S)-(2-(2-chlorophenyl)-2-hydroxyethyl)oxocarboxamide [Entry 2]”: 13.0 mg/kg.
For the molecule `CC(C)NC(=O)OC[C@H](OC(=O)NC(C)C)c1ccccc1Cl` [Entry 15], the “ED50 (mg/Kg)” value with mice (CF-1 strain) [2] is “≈10 (ip) mg/Kg”.
As for `NC(=O)OCC(OC(N)=O)c1ccccc1Cl` (stereo not drawn) [Entry 5, (DL)-(2-(2-Chlorophenyl)-2-carbamoyloxyethyl)oxocarboxamide], in the assay on mice (CF-1 strain) [1] (setting [4]), the “ED50” value worked out at 25 mg/kg.
As to “(S)-(2-(4-Chlorophenyl)-2-carbamoyloxyethyl)oxocarboxamide [Entry 10]”, the “ED50” value in the assay with mice (CF-1 strain) [1] (setting [3]) amounted to 21.5 mg/kg.
On to `NC(=O)OCC(O)c1ccccc1Cl` (stereo not drawn) [Entry 1, (DL)-(2-(2-chlorophenyl)-2-hydroxyethyl)oxocarboxamide], for which the “ED50” value with mice (CF-1 strain) [1] (setting [4]) was 33.7 mg/kg.
